Laboratory results published in patent US20210401931A1, “METHODS AND MATERIALS FOR TREATING CANCER” (Mayo Foundation for Medical Education and Research, priority 2018, published 2021).
Ends that are not written are not given here.

Columns and labels:
[1] = test system: PTEN-CaP8 cells; assay: Pd-l1 and NFκB target gene expression in PTEN-CaP8 cells expressing RL peptide; type: cell-based, mouse
Protocol: FIGS. 13A-F. (A, B) PC-3 cells were treated with or without gamma irradiation (IR) (12 Gy). 24 hours post treatment, cells were treated with or without Helenalin (2 μM). 24 hours after treatment, cells were harvested for western blotting analysis (A) and RT-qPCR analysis (B). All data were shown as mean values±SD (n=3). “ns”=not significant, *** P<0.001. (C) PTEN-CaP8 cells were infected with lentivirus expression Tsin control or Tsin-RL S249D/T252D peptide. 72 hours post infection, cell were harvested for western blotting analysis. (D, E) PTEN-CaP8 cells were infected with lentivirus expression Tsin control or Tsin-RL S249D/T252D peptide. 72 hours post infection, cells were treated with or without gamma irradiation (12 Gy) for 48 hours. Cells were harvested for MTS assay (D) and RT-qPCR (E). All data were shown as mean values±SD (n=3). “ns”=not significant, ** P<0.01; *** P<0.001. (F) Schematic diagram depicting the treatment plan for mice bearing subcutaneous PTEN-CaP8 tumors.
Total RNA was isolated using TRIzol reagent (Thermo Fisher Scientific). The NanoDrop 2000 spectrophotometer (Thermo Fisher Scientific) was used to assess RNA yield and quality. […] Quantitative real-time PCR was performed by mixing cDNA, gene-specific primers, and IQ SYRB Green Supermix and detected by iCycler QTX detection system (Bio-Rad). The 2-ΔCt method was used to quantitate fold changes by normalizing to GAPDH. […]

[2] = target: T1, p65-N (Homo sapiens, UniProt Q04206); assay: In vitro protein binding assay of RL peptide with GST-p65-N; conditions: compared to phosphorylation-resistant mutant
T1 construct: made in house
T1 sequence (Q04206 19-306 limits assumed): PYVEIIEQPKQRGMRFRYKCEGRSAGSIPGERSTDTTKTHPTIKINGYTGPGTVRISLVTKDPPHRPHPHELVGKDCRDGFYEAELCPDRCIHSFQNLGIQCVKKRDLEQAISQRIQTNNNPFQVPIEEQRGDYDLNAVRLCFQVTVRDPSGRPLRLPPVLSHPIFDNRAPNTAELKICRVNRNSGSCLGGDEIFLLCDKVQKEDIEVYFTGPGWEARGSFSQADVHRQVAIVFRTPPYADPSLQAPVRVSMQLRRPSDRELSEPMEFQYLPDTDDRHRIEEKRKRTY

[3] = test system: PTEN-CaP8 tumors; assay: PTEN-CaP8 mice tumor model, tumor growth; type: in vivo, mouse; conditions: C57BL/6 mice, s.c. PTEN-CaP8 tumors
Protocol: FIGS. 6A-J. The small S249/T252 phosphorylation-mimicking polypeptide of RB blocks irradiation-induced PD-L1 expression and inhibits cancer immune evasion. (A, B) PC-3 cells were infected with lentivirus expressing control shRNA or p65-specific or shRNA. 24 hours after puromycin selection, cells were treated with or without gamma irradiation (IR) (12 Gy). 48 hours after IR treatment, cells were harvested for western blotting analysis (A) and RT-qPCR analysis (B). All data were shown as mean values±SD (n=3). * P<0.05, ** P<0.01, *** P<0.001. (C, D) PC-3 cells were treated with without gamma irradiation (12 Gy). Cells were harvested at the indicated time point for western blotting analysis (C) and RT-qPCR analysis (D). All data were shown as mean values±SD (n=3). * P<0.05, ** P<0.01, *** P<0.001. (E) Western blot analysis of WCL and co-IP samples in PC-3 cells 48 hours after treated with or without gamma irradiation (12 Gy). […] (J) The absolute number of CD45^+CD8^+ T cells, CD45^+CD4^+ T cells, and CD11b^+Gr1^+ myeloid cells of implanted PTEN-CaP8 in tumors treated with indicated agents was analyzed by FACS. […]
6-week-old C57BL/6 mice (Jackson Lab) were used for animal experiments. […] The volume of xenografts was measured every other day and calculated using the formula L×W2×0.5. […]

RL-S249D/T252D: S249/T252 phospho-mimicking R-Linker (RL) peptide: fragment of RB-N containing 21 amino acids surrounding S249/T252, expressed SFB-tagged or by lentivirus (NGDPRDPRRGQNRSARIAKQL; also: expressed SFB-tagged (tag left off))
expression of anti-apoptotic / pro-survival NFκB target genes ([1]; PTEN-CaP8 cells, lentiviral peptide expression): blocked | Pd-l1 expression in PTEN-CaP8 cells ([1]; lentiviral Tsin-RL S249D/T252D, 72 hours): completely blocked | binding of in vitro transcribed and translated RL peptide to p65-N [2]: much stronger | tumor growth, agent combined with gamma irradiation ([3]; 12 Gy): tumors regressed | tumor growth, agent without irradiation ([3]; anti-PD-L1 200 μg or lentiviral peptide expression): markedly inhibited
